Assays:
[1] = Aqueous solubility, shake-flask procedure; type: physicochemical; conditions: for fold less soluble than the corresponding triazines: pyrimidines 7d, 8c versus triazines 7g, 8f
MT-2 human T-cells = assay: Cytotoxicity, inhibition of MT-2 cell growth; type: cell-based; conditions: inhibition of MT-2 cell growth by 50%

| fold less soluble than the corresponding triazines [1] | Structure (SMILES) | also measured |
| --- | --- | --- |
| 2-4 fold | Cc1cn2cc(C#N)cc2c(C)c1Nc1ccnc(Nc2ccc(C#N)cc2)n1 [Compound 7d] | – |
| 2-4 fold | Cc1cc2cc(C#N)ccc2c(C)c1Nc1ccnc(Nc2ccc(C#N)cc2)n1 [Compound 8c] | – |
| – | Cc1cc2cc(C#N)ccc2c(C)c1Nc1ncnc(Nc2ccc(C#N)cc2)n1 [Compound 8f] | solubility fold greater than for rilpivirine ([1]; versus rilpivirine): ca. 1000 fold |
| – | N#Cc1ccc(Nc2ncnc(Nc3c(F)cc4cc(C#N)ccc4c3F)n2)cc1 [Compound 8h] | CC50 (MT-2 human T-cells): no cytotoxicity |

Source: paper PMC4607639 (Bioorganic & medicinal chemistry letters, 2015)
